The target of one experiment is T1, AKT1 E17K (Homo sapiens, UniProt P31749, E17K).
T1 construct: expressed in transfected cells; host or cells: HEK293
The experiment can be described thus: Live cell AKT1 E17K target engagement by NanoBRET competitive probe displacement in HEK293 cells. Type of experiment: binding. Particulars: 2 h at 37° C. The method in brief:
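Read-out: BRET ratio E600/E460 from luminescence at 460 and 600 nm, fitted to a log(inhibitor) vs. response Hill equation for IC50. Intact HEK293 cells expressing NanoLuc-tagged kinase, compound dilutions with ~EC50 ATP-competitive fluorescent tracer, 2 h, 37° C.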

Another experiment addresses T2, AKT2 (Homo sapiens, UniProt P31751).
T2 construct: expressed in transfected cells; host or cells: HEK293
The experiment can be described thus: Live cell AKT2 target engagement by NanoBRET competitive probe displacement in HEK293 cells. In kind it is binding. Particulars: 2 h at 37° C., read-out: AKT2 IC50.

Experiment [1] relates to LAPC4 prostate cancer cells, which express the AKT1 E17K allele. The experiment can be described thus: Antiproliferative effects in LAPC4 cells (CellTiter Glo, 72 h). In kind it is cell-based. The following applies: Homo sapiens, LAPC4, 72 h, read-out: LAPC4 proliferation IC50. The method in brief:
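Luminescent ATP read-out (CellTiter Glo) after 72 h compound exposure; 1,000 cells/well in IMDM + 12% FBS + 1% P/S. IC50 by Hill equation fit of luminescence vs. log(inhibitor).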

A further experiment addresses T3, AKT1 WT (Homo sapiens, UniProt P31749).
T3 construct: expressed in transfected cells; host or cells: HEK293
The experiment can be described thus: Live cell AKT1 WT target engagement by NanoBRET competitive probe displacement in HEK293 cells. In kind it is binding. Particulars: 2 h at 37° C., read-out: AKT1 WT IC50.

[2] abbreviates: NanoBRET live cell target engagement, HEK293 cells.
[3] abbreviates: NanoBRET competitive probe displacement, live HEK293 cells.

Read-outs that look alike come from different tables or passages of the source. Where only a bound is given, the exact number is not on record here.

T3 sequence (P31749 whole entry): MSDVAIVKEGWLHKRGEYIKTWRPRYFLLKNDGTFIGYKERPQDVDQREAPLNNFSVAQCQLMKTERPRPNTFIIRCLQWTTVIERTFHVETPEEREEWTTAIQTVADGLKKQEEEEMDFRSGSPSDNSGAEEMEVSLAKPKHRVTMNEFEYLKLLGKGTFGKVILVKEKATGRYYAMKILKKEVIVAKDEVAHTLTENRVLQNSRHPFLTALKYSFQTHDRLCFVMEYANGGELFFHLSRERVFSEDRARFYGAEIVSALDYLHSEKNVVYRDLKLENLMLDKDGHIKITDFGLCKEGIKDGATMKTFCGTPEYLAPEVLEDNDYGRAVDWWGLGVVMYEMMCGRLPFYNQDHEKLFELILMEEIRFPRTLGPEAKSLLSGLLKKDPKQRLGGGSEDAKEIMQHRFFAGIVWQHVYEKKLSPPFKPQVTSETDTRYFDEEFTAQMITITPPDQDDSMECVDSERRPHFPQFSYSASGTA
T1 sequence (P31749 whole entry E17K): as the sequence (P31749 whole entry) above, with E17K counted along it
T2 sequence (P31751 whole entry): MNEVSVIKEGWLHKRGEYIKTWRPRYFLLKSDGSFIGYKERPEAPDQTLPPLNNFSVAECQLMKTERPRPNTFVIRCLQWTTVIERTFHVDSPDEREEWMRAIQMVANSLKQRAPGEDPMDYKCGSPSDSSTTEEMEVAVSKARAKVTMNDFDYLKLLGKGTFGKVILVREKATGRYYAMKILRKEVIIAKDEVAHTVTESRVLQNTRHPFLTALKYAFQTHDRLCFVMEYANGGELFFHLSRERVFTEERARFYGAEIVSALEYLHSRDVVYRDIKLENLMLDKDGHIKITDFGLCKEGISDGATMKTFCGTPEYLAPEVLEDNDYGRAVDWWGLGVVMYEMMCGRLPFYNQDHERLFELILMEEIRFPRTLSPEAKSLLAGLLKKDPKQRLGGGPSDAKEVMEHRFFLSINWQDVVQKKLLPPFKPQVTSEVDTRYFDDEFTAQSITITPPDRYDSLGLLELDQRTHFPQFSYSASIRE

In the case of `Nc1ncccc1-c1nc2ccc(-n3cccn3)nc2n1-c1ccc2c(c1)CC[C@@H]2NC(=O)c1cncc(F)c1` [Compound 32, (S)—N-(5-(2-(2-aminopyridin-3-yl)-5-(1H-pyrazol-1-yl)-3H-imidazo[4,5-b]pyridin-3-yl)-2,3-dihydro-1H-inden-1-yl)-5-fluoronicotinamide], the IC50 at AKT1 E17K (setting [2]) came to 49 nM; on AKT2 (setting [2]) it was 123 nM; in experiment [1], 0.914 µM; at AKT1 WT (setting [2]) it was 11 nM.
Take `Nc1ncccc1-c1nc2ccc(-n3cccn3)nc2n1-c1ccc2c(c1)CC[C@@H]2NC(=O)c1ccnc(C(F)F)c1` [Compound 44, (S)—N-(5-(2-(2-aminopyridin-3-yl)-5-(1H-pyrazol-1-yl)-3H-imidazo[4,5-b]pyridin-3-yl)-2,3-dihydro-1H-inden-1-yl)-2-(difluoromethyl)isonicotinamide]: the IC50 at AKT1 E17K (setting [2]) amounted to 74.1 nM; on AKT2 (setting [2]), 141 nM; in experiment [1] it was 1.4 µM; on AKT1 WT (setting [2]) it was 9.55 nM.
For the compound `Nc1ncccc1-c1nc2ccc(-n3cccn3)nc2n1-c1ccc2c(c1)CC[C@@H]2NC(=O)c1ccccn1` [Compound 36, N-[(1S)-5-[2-(2-aminopyridin-3-yl)-5-(pyrazol-1-yl)imidazo[4,5-b]pyridin-3-yl]-2,3-dihydro-1H-inden-1-yl]pyridine-2-carboxamide], the IC50 on AKT1 E17K (setting [2]) is 164 nM; at AKT2 (setting [2]), 1250 nM; in experiment [1] it was 3.46 µM; on AKT1 WT (setting [2]), 58.6 nM.
With `Nc1ncccc1-c1nc2ccc(-n3cccn3)nc2n1-c1ccc2c(c1)CC[C@@H]2NC1CCN(C(=O)C2(F)CC2)CC1` [Compound 370], the IC50 is 810 nM at AKT1 E17K (setting [2]), 1720 nM on AKT2 (setting [2]), above 10 µM in experiment [1] and 58.4 nM at AKT1 WT (setting [2]).
For `CCOC(=O)N1CCC(N[C@H]2CCc3cc(-n4c(-c5cccnc5N)nc5ccc(-n6cccn6)nc54)ccc32)CC1` [Compound 289], in that order: 283 nM, 2990 nM, 4.78 µM and 69.9 nM.
Turning to `CN1CCC(N[C@H]2CCc3cc(-n4c(-c5cccnc5N)nc5ccc(-n6cccn6)nc54)ccc32)CC1` [Compound 274], the IC50 at AKT1 E17K (setting [2]) was above 1000 nM; at AKT2 (setting [2]) it was 5000 nM; in experiment [1], above 10 µM; at AKT1 WT (setting [2]), 593 nM.
Turning to `COc1ccc(C(=O)N[C@H]2CCc3cc(-n4c(-c5cccnc5N)nc5ccc(-n6nccn6)nc54)ccc32)cn1` [Compound 371], the IC50 at AKT1 E17K (setting [2]) is 47.8 nM; on AKT2 (setting [2]), 1280 nM; in experiment [1], 1.05 µM; on AKT1 WT (setting [2]), 15.4 nM.
On to `COCCOc1ccn(-c2ccc3nc(-c4cccnc4N)n(-c4ccc5c(c4)CC[C@@H]5NC4CCN(C(=O)C5CC5)CC4)c3n2)n1` [Compound 504], for which the IC50 at AKT1 E17K (setting [3]) is above 1000 nM; at AKT2 (setting [3]) it was 665 nM; in experiment [1] it was 4.41 µM; on AKT1 WT (setting [3]) it was 14.3 nM.
Consider `Nc1ncccc1-c1nc2ccc(-n3nccn3)nc2n1-c1ccc2c(c1)CC[C@@H]2NC(=O)c1ccnc2occc12` [Compound 379], for which the IC50 at AKT1 E17K (setting [2]) is 248 nM; at AKT2 (setting [2]), 1280 nM; in experiment [1] it was 4.24 µM; on AKT1 WT (setting [2]), 12.6 nM.
With `Nc1ncccc1-c1nc2ccc(-n3cccn3)nc2n1-c1ccc2c(c1)CC[C@@H]2n1cc(C2CC2(F)F)nn1` (stereo partly shown) [Compound 362], the IC50 on AKT1 E17K (setting [2]) worked out at 138 nM; on AKT2 (setting [2]), 1270 nM; in experiment [1] it was 6.96 µM; on AKT1 WT (setting [2]) it was 36.1 nM.

Source of the values: patent US12624034B2, “Non-covalent modifiers of AKT1 and uses thereof” (Terremoto Biosciences, Inc., priority 2023, dated 2026).
